Assay results reported in patent publication US12296053B2, “Nanomaterials comprising triols” (Beam Therapeutics Inc., priority 2022, dated 2025).

Tests used:
[1] = Encapsulation efficiency of LNP preparations (Ribogreen assay; Qubit, unlysed and lysed LNPs); type: physicochemical; conditions: LNP preparation with the ionizable lipid, ABE mRNA:sgRNA 1:1, except 7-1, 7-2, 7-6, 7-10 (unlysed and lysed LNPs, Qubit)
In short: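 LNPs of ionizable lipid, cholesterol, PEG2000-DMG and DSPC (47.5:40:2.5:10 mol%) were made by microfluidic mixing with base-editor mRNA plus sgRNA (1:1 mass) in 50 mM citrate, pH 4.0, at total lipid:NA molar ratio 6 to 12. Encapsulation was read by Ribogreen, or for lipids 7-1, 7-2, 7-6 and 7-10 by Qubit on unlysed versus lysed LNPs.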

[2] = LNP hydrodynamic diameter and polydispersity index by dynamic light scattering (DLS); type: physicochemical; conditions: for Diameter (nm): hydrodynamic diameter of the LNP preparation with the ionizable lipid; for PDI: polydispersity index of the LNP preparation with the ionizable lipid
In short: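 LNPs were mixed at a 3:1 aqueous:organic ratio, diluted in TBS and dialysed against TBS at 4° C. for 8 to 24 hours (20 kDa). Hydrodynamic diameter and PDI were then measured by high-throughput DLS after dilution in 1×PBS.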

[3] = tested on: ALAS1 target site; experiment: Base editing in liver by LNP-delivered ABE mRNA and sgRNA, targeted deep sequencing; type: in vivo; conditions: LNP with the ionizable lipid, ABE mRNA + sgRNA targeting ALAS1 1:1; tail vein injection, Balb/c mice; 0.05 mg/kg; tissues four to six days post-dose

Encapsulation Efficiency (%) [1]	Diameter (nm) [2]	PDI [2]	Compound	% Editing in Liver (0.05 mpk) [3]
96.6%	53.45 nm	0.09	CC/C=C\CCCCOC(CCC(=O)OCC(COC(=O)CCCCCCOC(=O)C(CCCC)CCCCCC)COC(=O)CCC(CCCCCCC)OC(=O)NCCN1CCCC1)OCCCC/C=C\CC (centres unmarked) [Compound 7-50, 3-((4,4-bis(((Z)-oct-5-en-1-yl)oxy)butanoyl)oxy)-2-(((7-((2-butyloctanoyl)oxy)heptanoyl)oxy)methyl)propyl 4-(((2-(pyrrolidin-1-yl)ethyl)carbamoyl)oxy)undecanoate]	4.0%
96.6%	51.15 nm	0.08	CC/C=C\CCCCOC(CCC(=O)OCC(COC(=O)CCCCCCOC(=O)C(CCCC)CCCCCC)COC(=O)CCC(CCCCCCCC)OC(=O)NCCN1CCCC1)OCCCC/C=C\CC (centres unmarked) [Compound 7-51, 3-((4,4-bis(((Z)-oct-5-en-1-yl)oxy)butanoyl)oxy)-2-(((7-((2-butyloctanoyl)oxy)heptanoyl)oxy)methyl)propyl 4-(((2-(pyrrolidin-1-yl)ethyl)carbamoyl)oxy)dodecanoate]	1.0%
